# Measurements taken from paper PMC4076210, “Discovery of Novel AKT Inhibitors with Enhanced Anti-Tumor Effects in Combination with the MEK Inhibitor” (PLoS ONE, 2014).
# Where two headings read alike, the source gives them in different places.
# What was measured:
# Assay in all cases: Kinase panel
# Type in all cases: biochemical
# cSRC(h) = molecular target: T1, cSRC(h) (Homo sapiens, UniProt P12931)
# T1 construct: purchased Millipore KinaseProfiler
# SAPK4(h) = molecular target: T2, SAPK4(h) (Homo sapiens, UniProt O15264)
# T2 construct: purchased Millipore KinaseProfiler
# T2 sequence (O15264 1-365): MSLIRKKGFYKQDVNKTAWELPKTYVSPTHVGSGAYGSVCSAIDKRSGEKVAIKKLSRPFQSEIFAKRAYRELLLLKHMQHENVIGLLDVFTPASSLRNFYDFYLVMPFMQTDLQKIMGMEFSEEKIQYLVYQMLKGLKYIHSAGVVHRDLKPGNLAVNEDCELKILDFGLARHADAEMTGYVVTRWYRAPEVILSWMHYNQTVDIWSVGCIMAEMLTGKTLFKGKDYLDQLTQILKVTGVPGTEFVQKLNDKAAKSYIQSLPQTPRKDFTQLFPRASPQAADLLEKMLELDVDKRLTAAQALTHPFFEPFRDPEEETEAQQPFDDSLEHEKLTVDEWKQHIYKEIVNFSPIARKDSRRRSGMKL
# EGFR(L858R)(h) = molecular target: T3, EGFR(L858R)(h) (Homo sapiens, UniProt P00533, L858R)
# T3 construct: purchased Millipore KinaseProfiler
# T3 sequence (P00533 25-1210 L858R): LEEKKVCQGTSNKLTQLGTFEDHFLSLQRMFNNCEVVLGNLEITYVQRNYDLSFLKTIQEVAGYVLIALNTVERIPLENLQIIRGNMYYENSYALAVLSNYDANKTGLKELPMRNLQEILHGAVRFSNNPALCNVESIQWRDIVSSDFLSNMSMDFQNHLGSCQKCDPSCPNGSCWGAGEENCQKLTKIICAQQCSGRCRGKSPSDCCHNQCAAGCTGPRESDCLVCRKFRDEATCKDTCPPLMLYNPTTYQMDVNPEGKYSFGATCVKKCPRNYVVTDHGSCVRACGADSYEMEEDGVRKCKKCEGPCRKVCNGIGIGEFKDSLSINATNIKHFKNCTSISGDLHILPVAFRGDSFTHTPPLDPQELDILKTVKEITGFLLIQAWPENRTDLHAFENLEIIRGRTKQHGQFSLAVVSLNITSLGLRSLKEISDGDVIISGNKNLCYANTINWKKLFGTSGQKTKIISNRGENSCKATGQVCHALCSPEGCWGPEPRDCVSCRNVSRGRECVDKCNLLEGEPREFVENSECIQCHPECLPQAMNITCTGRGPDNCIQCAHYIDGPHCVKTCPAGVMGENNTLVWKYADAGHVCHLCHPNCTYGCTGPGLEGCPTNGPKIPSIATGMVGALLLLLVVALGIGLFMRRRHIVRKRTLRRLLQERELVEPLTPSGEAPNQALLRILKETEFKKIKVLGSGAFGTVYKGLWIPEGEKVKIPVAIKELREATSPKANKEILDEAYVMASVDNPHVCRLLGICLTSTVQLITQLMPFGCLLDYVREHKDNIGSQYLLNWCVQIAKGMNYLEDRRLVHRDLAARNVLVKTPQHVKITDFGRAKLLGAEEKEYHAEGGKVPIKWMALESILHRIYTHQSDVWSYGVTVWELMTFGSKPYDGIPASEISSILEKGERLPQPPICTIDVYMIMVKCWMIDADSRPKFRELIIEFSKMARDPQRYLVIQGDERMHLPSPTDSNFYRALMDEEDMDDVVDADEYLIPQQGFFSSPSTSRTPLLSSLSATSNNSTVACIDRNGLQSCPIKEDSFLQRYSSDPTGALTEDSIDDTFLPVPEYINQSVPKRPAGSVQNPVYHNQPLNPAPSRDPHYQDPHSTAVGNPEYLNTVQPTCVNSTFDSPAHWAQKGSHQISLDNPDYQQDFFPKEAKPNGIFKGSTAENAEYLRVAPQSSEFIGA
# Src(T341M)(h) = molecular target: T4, Src(T341M)(h) (Homo sapiens, UniProt P12931, T341M)
# T4 construct: purchased Millipore KinaseProfiler
# T4 sequence (P12931 whole entry T341M): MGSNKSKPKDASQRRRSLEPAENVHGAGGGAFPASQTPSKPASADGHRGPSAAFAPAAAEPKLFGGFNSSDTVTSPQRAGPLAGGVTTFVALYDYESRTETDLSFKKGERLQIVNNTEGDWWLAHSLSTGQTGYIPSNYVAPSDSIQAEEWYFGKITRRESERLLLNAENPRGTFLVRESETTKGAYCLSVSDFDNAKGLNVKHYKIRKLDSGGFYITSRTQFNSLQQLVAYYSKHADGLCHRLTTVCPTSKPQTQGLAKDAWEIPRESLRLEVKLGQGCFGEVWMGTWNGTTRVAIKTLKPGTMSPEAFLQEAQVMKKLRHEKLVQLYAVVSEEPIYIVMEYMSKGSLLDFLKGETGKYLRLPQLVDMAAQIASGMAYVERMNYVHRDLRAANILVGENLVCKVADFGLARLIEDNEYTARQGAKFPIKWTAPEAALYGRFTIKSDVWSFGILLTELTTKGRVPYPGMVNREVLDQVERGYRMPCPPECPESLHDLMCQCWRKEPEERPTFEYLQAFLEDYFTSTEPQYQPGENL
# PDGFRβ(h) = molecular target: T5, PDGFRβ(h) (Homo sapiens, UniProt P09619)
# T5 construct: purchased Millipore KinaseProfiler
# T5 sequence (P09619 33-1106): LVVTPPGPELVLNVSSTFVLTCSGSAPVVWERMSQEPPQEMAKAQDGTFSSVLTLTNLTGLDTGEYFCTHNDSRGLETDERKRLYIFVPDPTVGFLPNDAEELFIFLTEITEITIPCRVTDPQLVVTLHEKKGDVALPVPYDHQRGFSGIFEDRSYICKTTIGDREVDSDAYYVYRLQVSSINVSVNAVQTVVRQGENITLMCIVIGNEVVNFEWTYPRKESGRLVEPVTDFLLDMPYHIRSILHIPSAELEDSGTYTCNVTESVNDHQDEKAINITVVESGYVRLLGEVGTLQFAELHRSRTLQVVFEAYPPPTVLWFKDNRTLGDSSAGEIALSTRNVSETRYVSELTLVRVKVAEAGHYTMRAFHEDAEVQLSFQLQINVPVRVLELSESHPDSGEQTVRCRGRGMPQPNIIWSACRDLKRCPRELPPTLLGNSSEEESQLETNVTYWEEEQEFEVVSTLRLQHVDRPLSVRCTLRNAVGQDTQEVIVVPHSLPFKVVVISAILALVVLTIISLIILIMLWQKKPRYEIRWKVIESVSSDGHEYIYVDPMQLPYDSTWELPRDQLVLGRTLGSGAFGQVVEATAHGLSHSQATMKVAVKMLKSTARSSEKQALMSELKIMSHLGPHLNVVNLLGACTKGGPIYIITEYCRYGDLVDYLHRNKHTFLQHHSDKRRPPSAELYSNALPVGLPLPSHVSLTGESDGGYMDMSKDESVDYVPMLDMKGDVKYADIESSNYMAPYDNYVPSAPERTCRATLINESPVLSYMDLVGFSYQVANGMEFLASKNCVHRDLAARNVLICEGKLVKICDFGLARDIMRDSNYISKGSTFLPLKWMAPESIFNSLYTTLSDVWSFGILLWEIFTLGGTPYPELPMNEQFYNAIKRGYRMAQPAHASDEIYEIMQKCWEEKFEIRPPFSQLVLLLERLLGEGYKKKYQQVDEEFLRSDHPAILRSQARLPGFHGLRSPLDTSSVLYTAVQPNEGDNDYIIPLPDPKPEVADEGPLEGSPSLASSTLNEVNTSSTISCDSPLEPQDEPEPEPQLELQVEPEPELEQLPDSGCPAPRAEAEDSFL
# NEK3(h) = molecular target: T6, NEK3(h) (Homo sapiens, UniProt P51956)
# T6 construct: purchased Millipore KinaseProfiler
# T6 sequence (P51956 1-506): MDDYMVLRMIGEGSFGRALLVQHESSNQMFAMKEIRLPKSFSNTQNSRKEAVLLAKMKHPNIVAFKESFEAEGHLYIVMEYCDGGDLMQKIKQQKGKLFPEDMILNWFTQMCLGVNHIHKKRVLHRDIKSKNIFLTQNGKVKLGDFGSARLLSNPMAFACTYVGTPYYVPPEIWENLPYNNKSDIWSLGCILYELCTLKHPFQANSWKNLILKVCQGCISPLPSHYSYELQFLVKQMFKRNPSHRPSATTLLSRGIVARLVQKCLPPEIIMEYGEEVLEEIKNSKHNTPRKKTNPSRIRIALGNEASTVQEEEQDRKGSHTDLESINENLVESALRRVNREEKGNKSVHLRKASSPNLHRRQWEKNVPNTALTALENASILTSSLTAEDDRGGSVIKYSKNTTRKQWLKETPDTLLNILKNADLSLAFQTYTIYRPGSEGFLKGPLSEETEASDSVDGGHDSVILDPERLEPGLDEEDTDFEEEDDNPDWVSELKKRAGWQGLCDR
# BrSK2(h) = molecular target: T7, BrSK2(h) (Homo sapiens, UniProt Q8IWQ3)
# T7 construct: purchased Millipore KinaseProfiler
# T7 sequence (Q8IWQ3 1-736): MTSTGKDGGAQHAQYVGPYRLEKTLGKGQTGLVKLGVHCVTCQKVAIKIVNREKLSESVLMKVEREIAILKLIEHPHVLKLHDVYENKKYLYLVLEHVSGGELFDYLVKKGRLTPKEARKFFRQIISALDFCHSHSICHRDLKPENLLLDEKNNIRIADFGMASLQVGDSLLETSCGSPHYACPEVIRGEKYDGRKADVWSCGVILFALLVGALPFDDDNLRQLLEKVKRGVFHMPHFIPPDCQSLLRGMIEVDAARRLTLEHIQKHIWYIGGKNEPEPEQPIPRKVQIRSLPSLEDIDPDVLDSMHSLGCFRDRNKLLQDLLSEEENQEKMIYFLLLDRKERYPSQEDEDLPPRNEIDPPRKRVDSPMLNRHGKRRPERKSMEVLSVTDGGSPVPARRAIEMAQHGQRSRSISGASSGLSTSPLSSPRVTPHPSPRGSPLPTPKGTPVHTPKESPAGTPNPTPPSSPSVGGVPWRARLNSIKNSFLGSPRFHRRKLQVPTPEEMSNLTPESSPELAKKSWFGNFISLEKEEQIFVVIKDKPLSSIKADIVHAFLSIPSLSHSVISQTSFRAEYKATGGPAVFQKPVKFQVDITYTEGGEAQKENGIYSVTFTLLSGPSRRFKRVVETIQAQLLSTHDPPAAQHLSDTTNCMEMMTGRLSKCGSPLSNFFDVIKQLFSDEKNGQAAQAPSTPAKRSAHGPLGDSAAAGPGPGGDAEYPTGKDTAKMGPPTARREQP
# EphA4(h) = molecular target: T8, EphA4(h) (Homo sapiens, UniProt P54764)
# T8 construct: purchased Millipore KinaseProfiler
# T8 sequence (P54764 20-986): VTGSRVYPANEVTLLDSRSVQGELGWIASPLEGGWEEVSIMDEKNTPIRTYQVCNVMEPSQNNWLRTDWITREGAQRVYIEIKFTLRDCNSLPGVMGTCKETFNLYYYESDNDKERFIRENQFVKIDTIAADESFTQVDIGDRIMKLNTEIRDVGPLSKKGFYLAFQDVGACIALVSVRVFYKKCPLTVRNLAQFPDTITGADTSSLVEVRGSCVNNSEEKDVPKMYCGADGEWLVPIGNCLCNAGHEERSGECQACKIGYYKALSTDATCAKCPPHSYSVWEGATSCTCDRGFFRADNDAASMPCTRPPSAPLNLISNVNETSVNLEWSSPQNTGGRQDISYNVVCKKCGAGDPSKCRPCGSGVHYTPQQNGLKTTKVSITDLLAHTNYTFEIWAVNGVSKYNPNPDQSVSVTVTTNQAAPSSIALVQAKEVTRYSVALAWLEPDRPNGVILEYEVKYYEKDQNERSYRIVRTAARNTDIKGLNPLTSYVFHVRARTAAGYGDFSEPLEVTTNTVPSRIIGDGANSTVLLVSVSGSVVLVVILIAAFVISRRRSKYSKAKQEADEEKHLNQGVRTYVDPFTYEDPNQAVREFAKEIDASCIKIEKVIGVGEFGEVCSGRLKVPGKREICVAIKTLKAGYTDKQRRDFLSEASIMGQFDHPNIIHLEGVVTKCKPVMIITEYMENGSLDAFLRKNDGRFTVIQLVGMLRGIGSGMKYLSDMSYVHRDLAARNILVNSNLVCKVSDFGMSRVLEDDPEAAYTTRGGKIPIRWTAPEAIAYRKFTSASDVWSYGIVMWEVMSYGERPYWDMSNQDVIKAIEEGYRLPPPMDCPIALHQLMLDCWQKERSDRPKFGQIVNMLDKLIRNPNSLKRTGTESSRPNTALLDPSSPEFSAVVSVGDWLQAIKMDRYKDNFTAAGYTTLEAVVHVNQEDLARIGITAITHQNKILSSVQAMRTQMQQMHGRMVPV
# Fms(h) = molecular target: T9, Fms(h) (Homo sapiens, UniProt P07333)
# T9 construct: purchased Millipore KinaseProfiler
# SAPK2a(T106M)(h) = molecular target: T10, SAPK2a(T106M)(h) (Homo sapiens, UniProt Q16539, T106M)
# T10 construct: purchased Millipore KinaseProfiler
# T10 sequence (Q16539 whole entry T106M): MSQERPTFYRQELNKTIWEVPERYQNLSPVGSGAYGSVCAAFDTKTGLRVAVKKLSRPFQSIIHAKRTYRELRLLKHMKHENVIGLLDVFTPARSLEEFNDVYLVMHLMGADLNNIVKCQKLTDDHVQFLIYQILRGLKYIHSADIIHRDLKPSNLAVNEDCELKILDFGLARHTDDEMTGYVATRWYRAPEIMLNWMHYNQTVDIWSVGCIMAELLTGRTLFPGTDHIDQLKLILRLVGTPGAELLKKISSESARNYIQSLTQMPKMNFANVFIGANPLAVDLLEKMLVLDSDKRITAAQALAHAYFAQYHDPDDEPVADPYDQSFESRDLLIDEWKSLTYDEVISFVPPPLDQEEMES
# CaMKI(h) = molecular target: T11, CaMKI(h) (Homo sapiens, UniProt Q14012)
# T11 construct: purchased Millipore KinaseProfiler
# T11 sequence (Q14012 whole entry): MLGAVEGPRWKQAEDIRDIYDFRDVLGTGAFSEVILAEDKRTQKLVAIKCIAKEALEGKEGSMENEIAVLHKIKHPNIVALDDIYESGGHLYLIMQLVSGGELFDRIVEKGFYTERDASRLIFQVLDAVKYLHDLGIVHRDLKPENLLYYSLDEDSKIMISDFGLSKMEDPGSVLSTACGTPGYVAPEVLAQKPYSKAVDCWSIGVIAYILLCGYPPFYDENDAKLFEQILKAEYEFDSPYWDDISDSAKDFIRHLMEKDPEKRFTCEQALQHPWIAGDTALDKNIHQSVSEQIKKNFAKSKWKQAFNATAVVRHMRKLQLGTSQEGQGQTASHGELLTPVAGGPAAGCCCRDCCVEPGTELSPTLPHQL
# PrKX(h) = molecular target: T12, PrKX(h) (Homo sapiens, UniProt P51817)
# T12 construct: purchased Millipore KinaseProfiler
# T12 sequence (P51817 1-358): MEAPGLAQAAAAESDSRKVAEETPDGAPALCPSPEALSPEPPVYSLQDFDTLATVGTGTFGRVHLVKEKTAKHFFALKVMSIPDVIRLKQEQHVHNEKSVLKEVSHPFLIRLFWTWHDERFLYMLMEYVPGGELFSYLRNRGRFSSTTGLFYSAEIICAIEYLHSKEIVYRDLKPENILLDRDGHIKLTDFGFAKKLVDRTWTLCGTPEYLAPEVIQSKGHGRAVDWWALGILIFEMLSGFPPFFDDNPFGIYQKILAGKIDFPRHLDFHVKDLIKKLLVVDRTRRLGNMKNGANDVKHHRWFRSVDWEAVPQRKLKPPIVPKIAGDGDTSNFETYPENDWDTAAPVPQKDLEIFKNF
# CDK9/cyclin T1(h) = molecular target: T13, CDK9/cyclin T1(h) (Homo sapiens, UniProt P50750)
# T13 construct: purchased Millipore KinaseProfiler
# T1 sequence (P12931 whole entry): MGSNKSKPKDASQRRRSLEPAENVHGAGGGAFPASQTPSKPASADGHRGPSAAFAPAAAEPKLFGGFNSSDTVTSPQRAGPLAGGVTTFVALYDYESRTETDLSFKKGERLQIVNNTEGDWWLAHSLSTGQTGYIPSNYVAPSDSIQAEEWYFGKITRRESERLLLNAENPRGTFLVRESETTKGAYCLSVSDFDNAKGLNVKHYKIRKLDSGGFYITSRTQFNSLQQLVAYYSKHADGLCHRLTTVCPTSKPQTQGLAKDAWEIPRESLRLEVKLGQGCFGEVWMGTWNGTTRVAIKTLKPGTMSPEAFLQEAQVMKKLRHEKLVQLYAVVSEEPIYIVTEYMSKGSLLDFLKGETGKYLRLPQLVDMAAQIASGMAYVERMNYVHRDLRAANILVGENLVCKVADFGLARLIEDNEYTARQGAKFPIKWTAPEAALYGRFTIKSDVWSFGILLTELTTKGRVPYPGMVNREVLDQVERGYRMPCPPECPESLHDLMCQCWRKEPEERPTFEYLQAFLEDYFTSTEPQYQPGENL
smiles,measurement,setting,value
Cn1ncc(Cl)c1-c1cc(C(=O)N[C@H](CN)Cc2cccc(F)c2)sc1Cl [GSK2110183],inhibition at 0.5 µM,cSRC(h),-1%
same,inhibition at 10 µM,cSRC(h),22%
same,inhibition at 0.5 µM,SAPK4(h),3%
same,inhibition at 10 µM,SAPK4(h),64%
same,inhibition at 0.5 µM,EGFR(L858R)(h),3%
same,inhibition at 10 µM,EGFR(L858R)(h),15%
same,inhibition at 0.5 µM,Src(T341M)(h),24%
same,inhibition at 10 µM,Src(T341M)(h),83%
same,inhibition at 0.5 µM,PDGFRβ(h),2%
same,inhibition at 10 µM,PDGFRβ(h),5%
same,inhibition at 0.5 µM,NEK3(h),-14%
same,inhibition at 10 µM,NEK3(h),-10%
same,inhibition at 0.5 µM,BrSK2(h),-2%
same,inhibition at 10 µM,BrSK2(h),17%
same,inhibition at 0.5 µM,EphA4(h),-1%
same,inhibition at 10 µM,EphA4(h),-12%
same,inhibition at 0.5 µM,Fms(h),-1%
same,inhibition at 10 µM,Fms(h),3%
same,inhibition at 0.5 µM,SAPK2a(T106M)(h),-5%
same,inhibition at 10 µM,SAPK2a(T106M)(h),-6%
same,inhibition at 0.5 µM,CaMKI(h),3%
same,inhibition at 10 µM,CaMKI(h),24%
same,inhibition at 0.5 µM,PrKX(h),70%
same,inhibition at 10 µM,PrKX(h),96%
same,inhibition at 0.5 µM,CDK9/cyclin T1(h),0%
same,inhibition at 10 µM,CDK9/cyclin T1(h),48%
Cn1ncc(Cl)c1-c1cc(C(=O)N[C@H](CN)Cc2ccc(F)c(F)c2)oc1Cl [GSK2141795],inhibition at 0.5 µM,"cSRC(h); 0.5 µM, read-out: % Inhibition",-6%
same,inhibition at 10 µM,"cSRC(h); 10 µM, read-out: % Inhibition",49%
same,inhibition at 0.5 µM,"SAPK4(h); 0.5 µM, read-out: % Inhibition",-9%
same,inhibition at 10 µM,"SAPK4(h); 10 µM, read-out: % Inhibition",54%
same,inhibition at 0.5 µM,"EGFR(L858R)(h); 0.5 µM, read-out: % Inhibition",3%
same,inhibition at 10 µM,"EGFR(L858R)(h); 10 µM, read-out: % Inhibition",24%
same,inhibition at 0.5 µM,"Src(T341M)(h); 0.5 µM, read-out: % Inhibition",34%
same,inhibition at 10 µM,"Src(T341M)(h); 10 µM, read-out: % Inhibition",88%
same,inhibition at 0.5 µM,"PDGFRβ(h); 0.5 µM, read-out: % Inhibition",-7%
same,inhibition at 10 µM,"PDGFRβ(h); 10 µM, read-out: % Inhibition",-4%
same,inhibition at 0.5 µM,"NEK3(h); 0.5 µM, read-out: % Inhibition",6%
same,inhibition at 10 µM,"NEK3(h); 10 µM, read-out: % Inhibition",12%
same,inhibition at 0.5 µM,"BrSK2(h); 0.5 µM, read-out: % Inhibition",2%
same,inhibition at 10 µM,"BrSK2(h); 10 µM, read-out: % Inhibition",27%
same,inhibition at 0.5 µM,"EphA4(h); 0.5 µM, read-out: % Inhibition",-10%
same,inhibition at 10 µM,"EphA4(h); 10 µM, read-out: % Inhibition",-8%
same,inhibition at 0.5 µM,"Fms(h); 0.5 µM, read-out: % Inhibition",-13%
same,inhibition at 10 µM,"Fms(h); 10 µM, read-out: % Inhibition",3%
same,inhibition at 0.5 µM,"SAPK2a(T106M)(h); 0.5 µM, read-out: % Inhibition",-15%
same,inhibition at 10 µM,"SAPK2a(T106M)(h); 10 µM, read-out: % Inhibition",-33%
same,inhibition at 0.5 µM,"CaMKI(h); 0.5 µM, read-out: % Inhibition",-30%
same,inhibition at 10 µM,"CaMKI(h); 10 µM, read-out: % Inhibition",16%
same,inhibition at 0.5 µM,"PrKX(h); 0.5 µM, read-out: % Inhibition",91%
same,inhibition at 10 µM,"PrKX(h); 10 µM, read-out: % Inhibition",98%
same,inhibition at 0.5 µM,"CDK9/cyclin T1(h); 0.5 µM, read-out: % Inhibition",15%
same,inhibition at 10 µM,"CDK9/cyclin T1(h); 10 µM, read-out: % Inhibition",72%
